Test results: US9113629B2, “4-amino-6-(4-substituted-phenyl)-picolinates and 6-amino-2-(4-substituted-phenyl)-pyrimidine-4-carboxylates and their use as herbicides” (DOW AGROSCIENCES LLC, priority 2013, dated 2015)
Read-outs that look alike come from different tables or passages of the source.

Experiments:
[1] = tested on: Key Grass and Sedge Weeds as well as Grass Crops; experiment: Post-emergent Test II herbicidal activity (Table 6); assay type: in vivo; conditions: post-emergence, 336 h; for pest or weed control at 70 g/ha: application rate 70 g ai/ha; for pest or weed control at 140 g/ha: application rate 140 g ai/ha
In short: (§1)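 Greenhouse-grown plants at first or second true leaf stage were sprayed post-emergence with compound in acetone/DMSO-based aqueous spray containing crop oil concentrate and surfactant, at 187 L/ha, highest rate plus ½× to 1/16× dilutions. After 14 d, injury was scored visually versus untreated plants, 0 (none) to 100% (complete kill).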

[2] = tested on: Key Broadleaf Weed and Crop Species; experiment: Post-emergent Test II herbicidal activity (Table 5); assay type: in vivo; conditions: post-emergence, 336 h, post-emergent, 14 days after application; for pest or weed control at 70 g/ha: 70 g ai/ha; for pest or weed control at 140 g/ha: 140 g ai/ha
In short: as §1

[3] = Triticum aestivum, TRZSS (wheat), read-out: Visual Growth Reduction (%) 14 Days After Application, TRZSS
[4] = CYPES: yellow nutsedge (Cyperus esculentus), read-out: Visual Growth Reduction (%) 14 Days After Application, CYPES
[5] = DIGSA: crabgrass (Digitaria sanguinalis), read-out: Visual Growth Reduction (%) 14 Days After Application, DIGSA
[6] = ECHCG: barnyardgrass (Echinochloa crus-galli), read-out: Visual Growth Reduction (%) 14 Days After Application, ECHCG
[7] = ORYSA: rice (Oryza sativa), read-out: Visual Growth Reduction (%) 14 Days After Application, ORYSA
[8] = SETFA: giant foxtail (Setaria faberi), read-out: Visual Growth Reduction (%) 14 Days After Application, SETFA
[9] = SORVU: grain sorghum (Sorghum vulgare), read-out: Visual Growth Reduction (%) 14 Days After Application, SORVU
[10] = ZEAMX: maize, corn (Zea mays), read-out: Visual Growth Reduction (%) 14 Days After Application, ZEAMX
[11] = ABUTH: velvetleaf (Abutilon theophrasti), read-out: Visual Growth Reduction (%) 14 Days After Application ABUTH
[12] = AMARE: redroot pigweed (Amaranthus retroflexus), read-out: Visual Growth Reduction (%) 14 Days After Application AMARE
[13] = BRSNN: oilseed-rape, canola (Brassica napus), read-out: Visual Growth Reduction (%) 14 Days After Application BRSNN
[14] = CHEAL: lambsquarters (Chenopodium album), read-out: Visual Growth Reduction (%) 14 Days After Application CHEAL
[15] = EPHHL: wild poinsettia (Euphorbia heterophylla), read-out: Visual Growth Reduction (%) 14 Days After Application EPHHL
[16] = HELAN: sunflower (Helianthus annuus), read-out: Visual Growth Reduction (%) 14 Days After Application HELAN
[17] = VIOTR: wild pansy (Viola tricolor), read-out: Visual Growth Reduction (%) 14 Days After Application VIOTR

`C=Cc1c(C(=O)OC)nc(-c2ccc(C(F)(F)F)c(F)c2)c(F)c1N` [Compound 12] showed a pest or weed control at 70 g/ha [1, 3] of 0 to 29%, a pest or weed control at 140 g/ha [1, 3] of 0 to 29% and a pest or weed control at 70 g/ha [1, 4] of 30 to 44%. It also gave a pest or weed control at 140 g/ha [1, 4] of 45 to 59%, a pest or weed control at 70 g/ha [1, 5] of 0 to 29% and a pest or weed control at 140 g/ha [1, 5] of 0 to 29%. It also gave a pest or weed control at 70 g/ha [1, 6] of 0 to 29%, a pest or weed control at 140 g/ha [1, 6] of 0 to 29% and a pest or weed control at 70 g/ha [1, 7] of 0 to 29%. It also gave a pest or weed control at 140 g/ha [1, 7] of 0 to 29%, a pest or weed control at 70 g/ha [1, 8] of 0 to 29% and a pest or weed control at 140 g/ha [1, 8] of 0 to 29%. For the same molecule, the pest or weed control at 70 g/ha [1, 9] was 0 to 29%, the pest or weed control at 140 g/ha [1, 9] was 0 to 29% and the pest or weed control at 70 g/ha [1, 10] was 0 to 29%. For the same molecule, the pest or weed control at 140 g/ha [1, 10] was 0 to 29%, the pest or weed control at 70 g/ha [2, 11] was 75 to 84% and the pest or weed control at 140 g/ha [2, 11] was 85 to 94%. The pest or weed control at 70 g/ha [2, 12] was 0 to 29%, the pest or weed control at 140 g/ha [2, 12] was 45 to 59% and the pest or weed control at 70 g/ha [2, 13] was 0 to 29%. For the same molecule, the pest or weed control at 140 g/ha [2, 13] was 0 to 29%, the pest or weed control at 70 g/ha [2, 14] was 0 to 29% and the pest or weed control at 140 g/ha [2, 14] was 0 to 29%. The pest or weed control at 70 g/ha [2, 15] was 45 to 59%, the pest or weed control at 140 g/ha [2, 15] was 95 to 100% and the pest or weed control at 70 g/ha [2, 16] was 0 to 29%. For the same molecule, the pest or weed control at 140 g/ha [2, 16] was 0 to 29%, the pest or weed control at 70 g/ha [2, 17] was 0 to 29% and the pest or weed control at 140 g/ha [2, 17] was 0 to 29%.

`COC(=O)c1nc(-c2ccc(I)c(F)c2)c(Cl)c(N)c1Cl` [Compound 13, Methyl 4-amino-3,5-dichloro-6-(3-fluoro-4-iodophenyl)picolinate] showed a pest or weed control at 70 g/ha [1, 3] of 45 to 59%, a pest or weed control at 140 g/ha [1, 3] of 60 to 74% and a pest or weed control at 70 g/ha [1, 4] of 75 to 84%. It also gave a pest or weed control at 140 g/ha [1, 4] of 75 to 84%, a pest or weed control at 70 g/ha [1, 5] of 60 to 74% and a pest or weed control at 140 g/ha [1, 5] of 75 to 84%. It also gave a pest or weed control at 70 g/ha [1, 6] of 60 to 74%, a pest or weed control at 140 g/ha [1, 6] of 75 to 84% and a pest or weed control at 70 g/ha [1, 7] of 0 to 29%. The pest or weed control at 140 g/ha [1, 7] was 0 to 29%, the pest or weed control at 70 g/ha [1, 8] was 45 to 59% and the pest or weed control at 140 g/ha [1, 8] was 75 to 84%. For the same molecule, the pest or weed control at 70 g/ha [1, 9] was 85 to 94%, the pest or weed control at 140 g/ha [1, 9] was 85 to 94% and the pest or weed control at 70 g/ha [1, 10] was 60 to 74%. For the same molecule, the pest or weed control at 140 g/ha [1, 10] was 60 to 74%, the pest or weed control at 70 g/ha [2, 11] was 85 to 94% and the pest or weed control at 140 g/ha [2, 11] was 95 to 100%. For the same molecule, the pest or weed control at 70 g/ha [2, 12] was 85 to 94%, the pest or weed control at 140 g/ha [2, 12] was 95 to 100% and the pest or weed control at 70 g/ha [2, 13] was 85 to 94%. It also gave a pest or weed control at 140 g/ha [2, 13] of 85 to 94%, a pest or weed control at 70 g/ha [2, 14] of 95 to 100% and a pest or weed control at 140 g/ha [2, 14] of 95 to 100%. For the same molecule, the pest or weed control at 70 g/ha [2, 15] was 0 to 29%, the pest or weed control at 140 g/ha [2, 15] was 30 to 44% and the pest or weed control at 70 g/ha [2, 16] was 95 to 100%. For the same molecule, the pest or weed control at 140 g/ha [2, 16] was 95 to 100%, the pest or weed control at 70 g/ha [2, 17] was 0 to 29% and the pest or weed control at 140 g/ha [2, 17] was 0 to 29%.
